This passage reports AC40 results from PubChem BioAssay AID540258 (Broad Institute, 2011).

Molecules are shown by their SMILES. Activity calls are given as the source filed them.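 Rule for the calls: active = fitted curve reaching 40% activation at or below the top valid dose tested; inconclusive = flat curve at 30 to 70% activation, or poor fit; inactive = the rest.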

This assay relates to SK-MEL-5 TRPM1 promoter luciferase reporter, 24 h. The assay can be described thus: activation of TRPM1 promoter luciferase in melanoma cells – SK-MEL-5 cells, cherry-pick samples, dose response (AID 540258).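 Note: potency for activators that raise TRPM1 promoter luciferase signal.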
For `Cc1ccc(NC(=O)C2C3/C=C\CCCCC32)cc1` (stereo not given), the AC40 was 4.54 µM.

Regarding `O=C(Nc1ccccc1)Nc1ccc2nnsc2c1`, the AC40 is 13.1 µM.

Consider `CCCCN1C(=O)/C(=C2\SC(N3CCCCC3)=NC2=O)c2ccccc21`, for which the AC40 is 3.23 µM.

On to `CC1CCC(NC(=O)c2ccc(NS(=O)(=O)c3ccc4[nH]c(=O)[nH]c4c3)cc2)CC1` (stereo not given), for which the AC40 was 25.1 µM.

For `COc1ccc(-c2ccc(C(=O)C3CC3)cc2)cc1`, the AC40 was 0.775 µM.

On to `c1ccc(CCn2nnc3ccccc32)cc1`, for which the AC40 was 0.867 µM.

For `CC(C)(C)C(=O)N1CCN(c2nc3ccccc3s2)CC1`, the AC40 was 1.86 µM.

As for `O=C(NCCC1=CCCCC1)c1ccc(-n2cncn2)cc1`, the AC40 was 5.08 µM.

In the case of `Cc1ccc2c(Cl)c(C(=O)Nc3cccnc3)sc2c1`, the AC40 was 1.19 µM.

As to `O=C(NC1CCCCCC1)c1cc2c(=O)n3ccccc3nc2s1`, the AC40 is 8.63 µM.

Regarding `COc1ccccc1OCc1cc(-c2ccccc2)no1`, the AC40 is 2.28 µM.

Regarding `NC(=O)c1ccc(-c2noc(-c3cccc(Cl)c3)n2)cc1`, the AC40 is 3.8 µM.

With `O=C(N/N=C/c1ccccn1)c1c[nH]c2ccccc12`, the AC40 was 6.49 µM.

With `COC(=O)Cc1ccc(OCc2ccc(Cl)nc2)cc1`, the AC40 is 4.13 µM.

For `COc1ccc(C(=O)/C=C/Nc2cccc(C)n2)cc1OC`, the AC40 was 0.977 µM.

Regarding `O=C(NOCc1ccccc1)OCc1ccccc1`, the AC40 was 6.91 µM.

Take `COc1cc(OC)c2c(-c3cccc(/C=C/c4ccc(F)cc4)c3)cc(=O)oc2c1`: the AC40 was 6.95 µM.

As to `Cc1cc(C)c(NN=c2c(=O)c3ccccc3c2=O)c(C)c1`, the AC40 is 0.531 µM.

In the case of `CCN1CCN(c2cc3c(nn2)Oc2ccccc2N3C)CC1`, the AC40 was 5.84 µM.

Regarding `COc1cccc(/C(C)=N/N=C(\C)c2cccc(OC)c2)c1`, the AC40 is 3.27 µM.

As to `CCC(=O)NCCc1nc2cc(NC(=O)c3ccc(Cl)cc3)ccc2n1C`, the AC40 was 0.755 µM.

As to `COc1ccc(C2=NN(c3ccccc3)C(c3ccc(OC)c(OC)c3)C2)cc1` (stereo not given), the AC40 was 25.6 µM.

`CCN(CC)c1ccc(-c2nc3cnccc3n2C)cc1`: the AC40 was 1.64 µM.

Regarding `Cc1ccc(C(=O)O/N=C(\N)c2ccc(Br)cc2)cc1`, the AC40 was 7.84 µM.

Consider `Cc1nc(C(C)NC(=O)CCc2nnc(CCCc3ccccc3)o2)c(C)s1` (stereo not given), for which the AC40 is 3.83 µM.

Turning to `O=c1c(-c2nc3ccccc3s2)cccn1Cc1ccccc1`, the AC40 was 0.945 µM.

With `COc1ccc(NC(=S)c2ccccc2)cc1`, the AC40 was 3.97 µM.

For the compound `Cc1ccsc1CCNC(=O)C1CCC(=O)N(CCc2cccc(F)c2)C1` (stereo not given), the AC40 was 6.83 µM.

Turning to `c1cc(-c2cc3cc4c(cc3cn2)OCO4)cs1`, the AC40 was 2.12 µM.

As to `Cc1ccc(CNc2nc(C)cs2)cc1`, the AC40 was 1.05 µM.

In the case of `c1ccc(COc2ccc(-c3csnn3)cc2)cc1`, the AC40 was 0.889 µM.

As to `CCCN1C(=O)C(=O)N(CC(=O)c2cc(C)n(C3CC3)c2C)C1=O`, the AC40 was 24.8 µM.

For `O=C(NCCc1ccccc1)c1nccc2ccccc12`, the AC40 is 19.2 µM.

With `CC(NS(=O)(=O)c1cccc(Cl)c1)C(=O)Nc1ccc(-c2nc3ccccc3s2)cc1` (stereo not given), the AC40 was 6.96 µM.

On to `C/C(Cl)=C/CSc1nn2c(=O)c3ccccc3nc2s1`, for which the AC40 is 13 µM.

As to `COc1cccc(NC(=O)C(=O)NCCC2CCCCN2S(=O)(=O)c2cccs2)c1` (stereo not given), the AC40 is 4.24 µM.

Turning to `COc1ccc2cc(CCNC(=O)c3cccs3)c(=O)[nH]c2c1`, the AC40 was 1.95 µM.

Consider `CCc1ccc(NC(=O)c2cc(-c3cccs3)on2)cc1`, for which the AC40 was 12.3 µM.

Take `Cc1csc(NC(=O)Cc2c[nH]c3ccccc23)n1`: the AC40 was 27.3 µM.

For the compound `Cc1ccc(/C=N/Nc2ccc(Cl)nn2)cc1`, the AC40 is 1.93 µM.

Regarding `Nc1ccc(CSc2ccc(Cl)cc2)c(Cl)c1`, the AC40 is 1.98 µM.

For the compound `c1ccc2oc(CCc3nc4ccccc4o3)nc2c1`, the AC40 was > 35 µM (inactive).

As to `O=S(=O)(c1cccs1)N1CCCc2cccc(O)c21`, the AC40 is 7.11 µM.

Take `COc1ccc(NC(=O)C2Cc3ccccc3O/C2=N\O)cc1` (stereo not given): the AC40 was 17 µM.

On to `COc1ccc(-c2ccc3oc(-c4ccsc4)cc(=O)c3c2)cn1`, for which the AC40 was 1.79 µM.

In the case of `COc1cccc(NC(=O)c2csc3c2CCCC3)c1`, the AC40 is 4.8 µM.

Regarding `[O-]/[N+](=C\C=C\c1ccccc1)c1ccccc1`, the AC40 is 1.68 µM.

Consider `O=C(N/N=C/c1ccccc1C(F)(F)F)c1ccc(O)cc1`, for which the AC40 is 3.44 µM.

Turning to `CN(C(=O)c1cc(-c2ccccc2)on1)C1CCCCC1`, the AC40 is 1.12 µM.

As to `Cc1cccc(-c2cc(N)n(-c3ccccc3)n2)c1`, the AC40 is 0.712 µM.

In the case of `COc1cc(/C=C/c2nc3ccccc3c(=O)[nH]2)ccc1OC(F)F`, the AC40 was 0.98 µM.

Regarding `CC1(C)CC(/C=C/c2ccccc2)=Nc2ccccc2N1`, the AC40 was 20.9 µM.

As for `O=Cc1ccc(OCc2ccc3ccccc3c2)cc1`, the AC40 was 1.4 µM.

On to `CCc1ccc(NC(=O)C(=S)NC2CCCCC2)cc1`, for which the AC40 is 0.542 µM.

In the case of `Cc1ccc(NC(=O)c2ccc3ccccc3n2)cc1S(=O)(=O)N(C)C`, the AC40 is 2.37 µM.

Turning to `COc1ccc(NC(=O)c2ccc3c(c2)OCO3)cc1Cl`, the AC40 was 0.642 µM.

Consider `Cc1cc(NC(=O)c2ccc(Cl)cc2)no1`, for which the AC40 is 2.63 µM.

Regarding `Cc1ccc(Sc2cnc3ccccc3n2)cc1`, the AC40 is 1.43 µM.

On to `CCN(CC)c1ccc(Nc2nc(-c3cccnc3)cs2)cc1`, for which the AC40 is 2.64 µM.

For the compound `Oc1oc(-c2ccccc2)nc1C=NCc1ccccc1`, the AC40 is 11.3 µM.

With `Nc1ccccc1C#Cc1ccccc1`, the AC40 was 0.777 µM.

Consider `O=C(Nc1ccccc1O)c1cc2cc(Br)ccc2oc1=O`, for which the AC40 is 2.18 µM.

With `C/C(=C\c1ccc(N)cc1)c1nc2ccccc2[nH]1`, the AC40 was 1.72 µM.

For `CC1CCc2nc(NC(=O)Cc3cccs3)sc2C1` (stereo not given), the AC40 is 2.63 µM.

With `CC(=O)NCCC1CCCCN1C(=O)c1cc(COc2cc(C)ccc2C)on1` (stereo not given), the AC40 was 3.2 µM.

With `O=C(NCCc1cccs1)c1ccc(Cl)c(Cl)c1`, the AC40 was 3.47 µM.

Turning to `Nc1nonc1-n1nnc(C(=O)N/N=C/c2ccc(OCc3ccccc3F)cc2)c1CN1CCCCC1`, the AC40 was 17.1 µM.

Regarding `O=C(Nc1ccc(N2CCCCC2)cc1)c1cncc(Br)c1`, the AC40 was 0.969 µM.

As to `c1ccc2c(c1)CC/C2=N/Nc1nc2ccccc2[nH]1`, the AC40 is 0.86 µM.

As for `Clc1cnc(N/N=C/c2cccs2)c(Cl)c1`, the AC40 is 3.62 µM.

On to `Cc1cnc(NC(=O)Nc2ccc(Cl)cc2)s1`, for which the AC40 was 1.38 µM.

For `COc1cccc(NC(=O)Nc2ccc3c(c2)nnn3C)c1`, the AC40 was 4.88 µM.

As to `NC(=O)c1cnn(-c2cc(Oc3ccccc3)ncn2)c1N`, the AC40 is 2.88 µM.

With `C=CCc1c(C)nc(-c2ccccc2)nc1N/N=C/c1ccncc1`, the AC40 is 7.06 µM.

Regarding `COc1cccc2sc3ccc(C#CC4(O)CCCCC4)cc3c(=O)c12`, the AC40 was 2.94 µM.

With `COC(=O)C1CCc2c(ccc3c2CCCC3)C1=O` (stereo not given), the AC40 is 2.03 µM.

Consider `COc1ccccc1NC(=O)Nc1ccc(C(=O)N2CCCCC2)cc1`, for which the AC40 is 16.6 µM.

As to `COc1ccc2c(c1)CCc1c(C(=O)NCC(C)C)noc1-2`, the AC40 is 0.867 µM.

With `Cc1cccc(-c2nnc3sc(-c4ccccc4)nn23)c1`, the AC40 is 12.2 µM.

Consider `Cc1cc2ncc(-c3ccc(Cl)cc3)c(N)n2n1`, for which the AC40 is > 35 µM (inactive).
